Data as given in PubChem BioAssay AID743267 (Broad Institute, 2014).

Test system: human bronchial epithelial cells, CFTR corrector, plate reader
Experiment: CFTR ΔF508 corrector activity in bronchial cells, dose response, human bronchial epithelial cells, plate reader, cherry-pick, two tests (AID 743267)
[1] = measured here: test 2 replicate run
[2] = measured here: test 1 replicate run

SMILES	AC50 [1]	AC50 [2]
N#C/C(=C\c1ccccn1)c1nc2ccccc2s1	24.2 µM	
Cc1ccc(S(=O)(=O)N(Cc2cc3ccccc3[nH]c2=O)c2cccc(C)c2)cc1	8.17 µM	
C#C[C@]1(O)CC[C@H]2[C@@H]3CCc4cc(OC5CCCC5)ccc4[C@H]3CC[C@@]21C	3.31 µM	
CC(=O)Nc1ccc(NC(=O)COc2cccc3c2OC(C)(C)C3)cc1	> 50 µM	
COc1cccc(N2CCN(C(=O)c3ccc(CS(=O)c4ccc(Cl)cc4)o3)CC2)c1 (stereo not drawn)	1.48 µM	
Fc1ccc(/C=N/NC(=S)Nc2ccc(Cl)cc2Cl)cc1	32.2 µM	
COc1ccc([C@H]2CC(=O)C=C(c3c(OC)cccc3OC)C2)cc1	6.28 µM	
O=C(OCc1ccc(Br)cc1)c1cc([N+](=O)[O-])ccc1N1CCOCC1	0.662 µM	
COc1ccc(-c2oc3ccc(-c4cc(OC)c(OC)c(OC)c4)cc3c2C#Cc2ccccn2)cc1	26.7 µM	
Cc1ccc2cc(CN(CC3CCCO3)C(=S)Nc3ccccc3)c(=O)[nH]c2c1C (stereo not drawn)	3.16 µM	
CC(=NNC(=O)c1ccncc1)c1ccc2ccccc2c1O	7.94 µM	
CCOC(=O)c1[nH]c(C)c(/C(O)=C2\C(=O)C(=O)N(CCCN3CCOCC3)C2c2cccs2)c1C (stereo not drawn)	19.4 µM	
c1ccc(CCN(Cc2ccccc2)Cc2nc(C3CC3)no2)cc1	24.9 µM	
Cc1nn(S(=O)(=O)c2ccc(Cl)cc2)c(C)c1Sc1ccc([N+](=O)[O-])cc1	> 32 µM	
COc1ccc(NS(=O)(=O)c2cc(NC(=O)Cc3c(F)cccc3Cl)ccc2OC)cc1	0.827 µM	
COc1cc(C(=O)Nc2ccc3c(c2)ncn3C)cc(OC)c1OC	3.9 µM	
COC(=O)C[C@@H]1CC[C@@H]2[C@H](COc3ccc(NC(=O)c4ccc(C(F)(F)F)cc4)cc3C(=O)N2C)O1		19.2 µM
O=C1c2cccc3c(O)ccc(c23)C(=O)N1Cc1ccco1	13.3 µM	
C[C@@H]1CN([C@H](C)CO)C(=O)c2cc(NS(=O)(=O)c3ccc(Cl)cc3)ccc2O[C@@H]1CN(C)Cc1ccc(-c2ccccc2)cc1		46.3 µM
CC1CCN(C(=O)C2COc3ccccc3O2)CC1 (stereo not drawn)	35.1 µM	
CCOc1ccc(-c2cc(C(=O)N/N=C/c3ccc(O)cc3)c3ccccc3n2)cc1	16 µM	
COc1cc(C#Cc2ccc3cc(CCCO)oc(=O)c3c2)cc(OC)c1	10.3 µM	
COc1cccc(Sc2ccccc2/C=N/NC(N)=O)c1	41.6 µM	
C[C@@H]1CN([C@@H](C)CO)C(=O)Cc2cc(NC(=O)Nc3cccc4ccccc34)ccc2O[C@@H]1CN(C)Cc1ccc(Cl)c(Cl)c1		2.12 µM
CC(=O)c1ccc(Nc2cc(C)nc3c(C)cc(C)cc23)cc1	3.11 µM	
CCN(CC)CCCNc1ccc2ncn3c4ccc(O)cc4c(=O)c1c23	1.8 µM	
CN(Cc1ccco1)c1ncnc2ccc(-c3ccc4c(ccn4C)c3)cc12	1.77 µM	

SMILES	AC50 [1]	AC50 [2]
COc1cccc(-c2cc3nc(-c4ccccc4)cc(=O)n3[nH]2)c1	2.35 µM	
Cc1cccc2c(N=Nc3ccc(S(=O)(=O)Nc4ccc(Cl)cc4)cc3[N+](=O)[O-])c(O)[nH]c12	> 50 µM	
Nc1sc(-c2ccccc2)cc1-c1n[nH]c(=S)n1C1CCCCC1	2.45 µM	
C[C@@H]1O[C@@H](O[C@@H]2C=C3CC[C@@H]4C(CC[C@]5(C)[C@@H](c6ccc(=O)oc6)CC[C@]45O)[C@@]3(C)CC2)[C@H](O)[C@H](O)[C@H]1O (stereo partly drawn)	1.42 µM	
COc1cccc(Nc2nc(-c3sc(NC(=O)c4ccccc4)nc3C)cs2)c1	11.6 µM	
O=C1NC(=Nc2cccnc2)S/C1=C/c1ccc(F)cc1	9.27 µM	
N#CCC(=O)N/N=C/c1cn(Cc2cccc3ccccc23)c2ccccc12	2.86 µM	
COc1cc(OC)cc(-c2cc3ccc(OC)cc3cn2)c1	43.6 µM	
NC(=S)NN=Cc1nccc2c(N)cccc12	3.21 µM	
C=CCN=c1scc(C)n1/N=C/c1ccc(O)c(O)c1	> 50 µM	
CC(=NNC(=S)Nc1ccc(C)cc1)c1ccccn1	0.499 µM	
COc1ccc(CCNc2c3ccccc3nc3ccccc23)cc1OC	3.9 µM	
COc1cc(OC)cc(C(=O)c2c(C)c(C#N)c3ccccn23)c1	1.8 µM	
CCCC(=O)NC1=C(Cl)C(=O)c2ccccc2C1=O	11.8 µM	
O=c1c(O)c(-c2cccs2)oc2ccc(Cl)cc12	6.12 µM	
CCOC(=O)c1ccc(N2CCOCC2)c(NC(=O)c2c(-c3ccccc3)noc2C)c1	4.89 µM	
COc1ccc(NC(=O)c2cc(S(=O)(=O)N3CCOCC3)ccc2C)cc1S(=O)(=O)N1CCOCC1	> 50 µM	
Cn1nccc1C(=O)N/N=C/c1c(O)ccc2ccccc12	19.2 µM	
NS(=O)(=O)c1cc(Cl)c(Cl)c(S(N)(=O)=O)c1	0.0468 µM	
CCCC(=O)Nc1ccc2c(c1)nc(CN1CCN(C(=O)OCC)CC1)n2CC	8.58 µM	
Cc1cc(Nc2ccc(Br)cc2)nc2ccccc12	21.1 µM	
O=C(c1cccc(S(=O)(=O)N2CCN(c3ccc(F)cc3)CC2)c1)N1CCCC(C(F)(F)F)C1 (stereo not drawn)	16 µM	
COc1ccccc1NS(=O)(=O)c1cc(-c2cnc(C3CC3)o2)ccc1C	9.51 µM	
C[C@H](CO)N1C[C@H](C)[C@H](CN(C)C(=O)NC2CCCCC2)Oc2cc(C#Cc3ccc(F)cc3)ccc2S1(=O)=O		7.62 µM
CC(=O)Nc1sc2c(c1-c1nc3ccccc3s1)CN(C(C)C)CC2	1.43 µM	
COCCNC(=O)NC12CC3(C)CC(C)(CC(C)(C3)C1)C2	> 50 µM	
